No end group written: not given here.
System: ERK2
Test: In vitro kinase assay, ERK2
Assay type: biochemical
Settings: GST-tagged peptide, 1 h, 30 °C, 50 μM ATP
Method: We used the purified GST-tagged peptides for the in vitro kinase assays with activated recombinant kinases obtained from Proqinase GmbH (Freiburg, Germany). We performed the kinase assays in reaction buffer (50 mM HEPES-NaOH, pH 7.5, 3 mM MgCl2, 3 mM MnCl2, 3 μM sodium orthovanadate, 1 mM dithiothreitol, 50 μM unlabeled ATP, 5 μCi ^32P-γ-ATP) for 1 h at 30 °C. We stopped the reaction by adding 5× sample buffer and separated the proteins using SDS-PAGE. The gel was stained with Coomassie Brilliant Blue, dried, and developed on X-ray film.
The phosphorylated threonine of the immunoprecipitated peptide with HA antibody was detected with [PXpTP] antibody. b In vitro kinase assays using purified GST-tagged CABIN1 peptide and PKC downstream kinases. c In vitro kinase assays using purified GST-tagged peptides and kinases included in the MAPK family. d Immunoprecipitation assays using Flag-MAPKs and HA-CABIN1 in HEK293T cells. e, f In vitro kinase assays using p38α and substituted CABIN1 peptides. g Jurkat T cells expressing HA-mCherry-tagged CABIN1 peptide were treated with 10 μM p38α inhibitors for 16 h. Immunoprecipitation was performed with HA antibody and detected by western blotting. h Phosphorylated threonine and peptide-bound CNA of g were measured using ImageJ, and the ratio of phosphorylation and calcineurin binding to the CABIN1 peptide was calculated (n = 6). […]

## CABIN1-L-1-2: 10 amino acids from proline 2146 to proline 2155 of full-length CABIN1; expressed GST-, GAL4 DBD- or HA-mCherry-tagged (PEITVTPPTP; also: expressed GST-, GAL4 DBD- or HA-mCherry-tagged, end not given here)
  phosphorylation by ERK2: phosphorylated
